Values joined by “and” are separate entries in the source; they are usually repeats but may differ in a detail not shown here. Equal entries are not always repeated.
Settings: Liquid, Vibrating tube method

CCCCCC(=O)OCC(COC(=O)CCCCC)(COC(=O)CCCCC)COC(=O)CCCCC [pentaerythritol tetrahexanoate]
Settings	mass density
283.16 K, 9726 kPa	1009.7 kg/m3
283.16 K, 9740.5 kPa	1009.7 kg/m3
283.16 K, 11666 kPa	1010.8 kg/m3
283.16 K, 11699 kPa	1010.9 kg/m3
283.16 K, 11719 kPa	1011 kg/m3
283.16 K, 11736 kPa	1010.9 kg/m3
283.16 K, 11882 kPa	1011 kg/m3
283.16 K, 15896 kPa	1013.2 kg/m3
283.16 K, 15917 kPa	1013.2 kg/m3
283.16 K, 15934 kPa	1013.3 kg/m3
283.16 K, 15952 kPa	1013.2 kg/m3
283.16 K, 15973 kPa	1013.2 kg/m3
283.16 K, 15990 kPa	1013.1 kg/m3
283.16 K, 16007 kPa	1013.1 kg/m3
283.16 K, 16028 kPa	1013.2 kg/m3
283.16 K, 16047 kPa	1013.4 kg/m3
283.16 K, 17073 kPa	1013.9 kg/m3
283.16 K, 17091 kPa	1013.8 kg/m3
283.16 K, 17101 kPa	1013.8 kg/m3
283.16 K, 17102 kPa	1013.8 kg/m3
283.16 K, 17103 kPa	1013.9 kg/m3
283.16 K, 21750 kPa	1016.3 kg/m3
283.16 K, 24165 kPa	1017.6 kg/m3
283.16 K, 24256 kPa	1017.8 kg/m3
283.16 K, 24293 kPa	1017.8 kg/m3
283.16 K, 24310 kPa	1017.7 kg/m3
283.16 K, 24348 kPa	1017.7 kg/m3
283.16 K, 26923 kPa	1019 kg/m3
283.16 K, 26937 kPa	1019 kg/m3
303.14 K, 14075 kPa	997.2 kg/m3
303.14 K, 21030 kPa	1001.2 kg/m3
303.14 K, 32666 kPa	1007.6 kg/m3
303.14 K, 32689 kPa	1007.7 kg/m3
303.14 K, 32708 kPa	1007.8 kg/m3
303.14 K, 32727 kPa	1007.7 kg/m3
303.14 K, 32750 kPa	1007.8 kg/m3
303.14 K, 32770 kPa	1007.7 kg/m3
303.14 K, 32789 kPa	1007.7 kg/m3
303.14 K, 34002 kPa	1008.2 kg/m3
303.14 K, 34004 kPa	1008.4 kg/m3
303.14 K, 34018 kPa	1008.3 kg/m3
303.14 K, 34022 kPa	1008.4 kg/m3
303.14 K, 34024 kPa	1008.4 kg/m3
303.14 K, 34030 kPa	1008.3 kg/m3
303.14 K, 34038 kPa	1008.4 kg/m3
303.14 K, 34043 kPa	1008.4 kg/m3
303.14 K, 34049 kPa	1008.2 kg/m3
303.14 K, 34053 kPa	1008.4 kg/m3
303.14 K, 34057 kPa	1008.5 kg/m3
303.14 K, 34060 kPa	1008.3 kg/m3
303.14 K, 34063 kPa	1008.4 kg/m3
303.14 K, 34084 kPa	1008.5 kg/m3
303.14 K, 34101 kPa	1008.4 kg/m3
303.14 K, 34115 kPa	1008.4 kg/m3
303.14 K, 34131 kPa	1008.4 kg/m3
303.14 K, 34147 kPa	1008.4 kg/m3
303.14 K, 34159 kPa	1008.4 kg/m3
303.14 K, 34165 kPa	1008.6 kg/m3
303.14 K, 34169 kPa	1008.5 kg/m3
303.14 K, 34174 kPa	1008.4 kg/m3
303.15 K, 191.8 kPa	988.6 kg/m3
303.15 K, 192.2 kPa	988.4 kg/m3
303.15 K, 192.4 kPa	988.5 kg/m3
303.15 K, 192.5 kPa	988.3 kg/m3
303.15 K, 192.7 kPa	988.4 kg/m3
303.15 K, 193.2 kPa	988.5 kg/m3
303.15 K, 193.4 kPa	988.5 kg/m3 and 988.4 kg/m3
303.15 K, 193.6 kPa	988.6 kg/m3
303.15 K, 193.9 kPa	988.5 kg/m3
303.15 K, 194.8 kPa	988.4 kg/m3 and 988.5 kg/m3
303.15 K, 195 kPa	988.5 kg/m3
303.15 K, 195.1 kPa	988.5 kg/m3

From the NIST ThermoML archive (doi:10.1021/je060271a)
